Assay [1] concerns the target T1, baculovirus-expressed ALK (Homo sapiens, UniProt Q9UM73).
T1 construct: host or cells: baculovirus expression system
The assay is described as follows: ALK Kinase Assay (ELISA-type, time-resolved fluorescence). The assay is classed as biochemical. On the procedure:
(§1) Briefly, each 96-well plate was coated with 100 μL/well of 10 μg/mL substrate (phospholipase C-γ) in Tris-buffered saline (TBS). […] The reaction was initiated by adding enzyme (30 ng/ml ALK) and was allowed to proceed at 37° C. for 15 minutes. Detection of the phosphorylated product was performed by adding 100 μl/well of Eu-N1 labeled PT66 antibody (Perkin Elmer # AD0041).
(§2) Data analysis was performed using ActivityBase (IDBS, Guilford, UK). IC50 values were calculated by plotting percent inhibition versus log10 of the concentration of compound and fitting to the nonlinear regression sigmoidal dose-response (variable slope) equation in XLFit (IDBS, Guilford, UK).
On the technique in general: An ELISA detects its analyte on a solid surface through an enzyme-linked reagent.

The target of assay [2] is T2, c-Met (cytoplasmic domain) (Homo sapiens, UniProt P08581).
T2 construct: 10 ng/mL c-Met (cytoplasmic domain, Invitrogen Corporation #PV3143); purchased Invitrogen Corporation PV3143
The assay is described as follows: c-Met Kinase Assay (same methods as for ALK, with modifications). The assay is classed as biochemical. On the procedure:
as §1, §2
Reactions were initiated with 10 ng/mL c-Met (cytoplasmic domain, Invitrogen Corporation #PV3143).

[3] abbreviates: 1 μM ATP (Km level), 30 ng/ml ALK, 37° C., 15 minutes, read-out: ALK Activity (ALK kinase inhibition, IC50 class).
The mark [4] stands for this setting: 1 μM ATP (Km level), 10 ng/mL c-Met, read-out: cMet Activity (c-Met kinase inhibition, IC50 class).
Setting [5] is: ALK kinase inhibition, 1 μM ATP, read-out: ALK Activity.
Where [6] appears, read: c-Met kinase inhibition, 1 μM ATP, read-out: cMet Activity.
[7] abbreviates: ALK kinase inhibition, 1 μM ATP (Km level), read-out: ALK Activity.
[8] abbreviates: c-Met kinase inhibition, 1 μM ATP (Km level), read-out: cMet Activity.
The mark [9] stands for this setting: 1 μM ATP (Km level), read-out: ALK Activity (ALK Kinase Inhibition, IC50).
Setting [10] is: 1 μM ATP (Km level), read-out: cMet Activity (c-Met Kinase Inhibition, IC50).

Read-outs that look alike come from different tables or passages of the source. Where only a bound is given, the exact number is not on record here.

T2 sequence (P08581 956-1390 limits assumed): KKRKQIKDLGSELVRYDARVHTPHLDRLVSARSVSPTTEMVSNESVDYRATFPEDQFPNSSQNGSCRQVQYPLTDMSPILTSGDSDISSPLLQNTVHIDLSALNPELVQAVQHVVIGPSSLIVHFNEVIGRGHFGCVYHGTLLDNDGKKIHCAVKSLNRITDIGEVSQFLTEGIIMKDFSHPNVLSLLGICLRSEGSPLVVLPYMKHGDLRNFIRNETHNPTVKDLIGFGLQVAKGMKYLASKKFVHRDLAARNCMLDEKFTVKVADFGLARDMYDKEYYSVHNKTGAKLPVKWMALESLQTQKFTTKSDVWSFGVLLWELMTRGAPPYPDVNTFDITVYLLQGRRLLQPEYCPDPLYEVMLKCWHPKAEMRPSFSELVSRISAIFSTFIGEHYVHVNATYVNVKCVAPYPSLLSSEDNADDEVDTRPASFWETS
T1 sequence (Q9UM73 19-1620): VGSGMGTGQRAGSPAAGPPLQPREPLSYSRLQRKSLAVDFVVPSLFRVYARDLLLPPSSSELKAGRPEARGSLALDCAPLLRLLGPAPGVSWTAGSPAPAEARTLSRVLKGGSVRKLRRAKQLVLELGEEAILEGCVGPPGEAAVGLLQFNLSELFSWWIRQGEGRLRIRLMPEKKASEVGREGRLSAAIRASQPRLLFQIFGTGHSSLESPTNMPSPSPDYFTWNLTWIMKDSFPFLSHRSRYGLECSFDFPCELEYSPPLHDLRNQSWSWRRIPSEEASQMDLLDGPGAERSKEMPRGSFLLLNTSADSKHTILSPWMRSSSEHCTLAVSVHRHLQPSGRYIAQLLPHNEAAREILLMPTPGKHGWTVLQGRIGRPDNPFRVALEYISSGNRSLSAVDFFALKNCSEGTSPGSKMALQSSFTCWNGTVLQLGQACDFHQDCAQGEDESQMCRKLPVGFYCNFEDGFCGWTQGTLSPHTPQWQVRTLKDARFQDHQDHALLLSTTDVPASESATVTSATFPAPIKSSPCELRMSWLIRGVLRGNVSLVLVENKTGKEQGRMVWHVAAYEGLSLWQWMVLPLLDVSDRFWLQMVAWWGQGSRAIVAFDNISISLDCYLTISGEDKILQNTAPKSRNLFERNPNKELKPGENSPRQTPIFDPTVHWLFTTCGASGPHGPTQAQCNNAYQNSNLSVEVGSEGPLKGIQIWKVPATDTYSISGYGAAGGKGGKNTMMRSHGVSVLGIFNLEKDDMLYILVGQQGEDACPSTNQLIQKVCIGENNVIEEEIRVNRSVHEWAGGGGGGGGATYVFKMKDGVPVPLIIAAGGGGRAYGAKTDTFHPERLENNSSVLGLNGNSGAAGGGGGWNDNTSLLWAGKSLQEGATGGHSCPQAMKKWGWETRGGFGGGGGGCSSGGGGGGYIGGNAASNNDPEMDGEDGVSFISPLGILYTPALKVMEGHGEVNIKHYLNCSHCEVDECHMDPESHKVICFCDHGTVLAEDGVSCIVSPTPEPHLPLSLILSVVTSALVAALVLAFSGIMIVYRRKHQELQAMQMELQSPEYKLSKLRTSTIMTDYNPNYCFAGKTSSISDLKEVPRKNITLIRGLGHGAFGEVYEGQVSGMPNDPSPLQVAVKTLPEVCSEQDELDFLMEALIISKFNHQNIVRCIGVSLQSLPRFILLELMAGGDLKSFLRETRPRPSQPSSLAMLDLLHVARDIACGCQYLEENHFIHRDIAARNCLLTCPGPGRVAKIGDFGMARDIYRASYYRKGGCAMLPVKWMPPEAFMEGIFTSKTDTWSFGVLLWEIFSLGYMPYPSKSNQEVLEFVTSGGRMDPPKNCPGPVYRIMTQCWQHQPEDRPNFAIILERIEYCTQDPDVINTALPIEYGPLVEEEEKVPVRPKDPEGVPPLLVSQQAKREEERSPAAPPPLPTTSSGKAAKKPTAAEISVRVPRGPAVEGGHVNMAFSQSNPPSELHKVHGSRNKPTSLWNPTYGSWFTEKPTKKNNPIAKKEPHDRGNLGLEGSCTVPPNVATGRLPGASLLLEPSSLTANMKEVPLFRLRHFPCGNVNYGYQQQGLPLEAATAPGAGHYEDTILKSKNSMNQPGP

Regarding “1-[5-Chloro-2-(3-dimethylcarbamoylmethyl-8-methoxy-2,3,4,5-tetrahydro-1H-benzo[d]azepin-7-ylamino)-pyrimidin-4-ylamino]-cyclopentanecarboxylic acid methylamide [Example 1203]”, the IC50 is 100 to 1000 nM in assay [1] (setting [3]) and more than 10000 nM in assay [2] (setting [4]).

With “2-[2-(8-Amino-4H,6H-3,5,10b-triaza-benzo[e]azulen-5-yl)-5-chloro-pyrimidin-4-ylamino]-3-fluoro-N-methyl-benzamide [Example 1467]”, the IC50 in assay [1] (setting [5]) and in assay [2] (setting [6]) was 1000 to 10000 nM throughout.

For the molecule “2-[5-Chloro-2-(1,4-dimethyl-5-oxo-2,3,4,5-tetrahydro-1H-benzo[e][1,4]diazepin-8-ylamino)-pyrimidin-4-ylamino]-N-methylbenzamide [Example 416]”, the IC50 in assay [1] (setting [7]) and in assay [2] (setting [8]) was less than 100 nM in each case.

Regarding “2-[5-Chloro-2-(1-methyl-1,2,3,5-tetrahydro-benzo[e][1,4]oxazepin-7-ylamino)-pyrimidin-4-ylamino]-N-(2-hydroxy-ethyl)-benzamide and 2-{2-[5-Chloro-2-(1-methyl-1,2,3,5-tetrahydro-benzo[e][1,4]oxazepin-7-ylamino)-pyrimidin-4-ylamino]-phenyl}-oxazolidin-2-ol [Example 16]”, the IC50 in assay [1] (setting [7]) and in assay [2] (setting [8]) was less than 100 nM in each case.

Turning to “2-[5-Chloro-2-(2-methyl-3-oxo-2,3,4,5-tetrahydro-1H-benzo[c]azepin-8-ylamino)-pyrimidin-4-ylamino]-N-methyl-benzamide and 2-[5-chloro-2-(2-methyl-3-oxo-2,3-dihydro-1H-benzo[c]azepin-8-ylamino)-pyrimidin-4-ylamino]-N-methyl-benzamide [Example 1798]”, the IC50 in assay [1] (setting [5]) and in assay [2] (setting [6]) was less than 100 nM in each case.

In the case of “2-[5-Chloro-2-(3-methyl-4-oxo-2,3,4,5-tetrahydro-1H-benzo[d]azepin-7-ylamino)-pyrimidin-4-ylamino]-3,5,N-trimethyl-benzamide [Example 1818]”, the IC50 in assay [1] (setting [5]) lay within 1000 to 10000 nM; in assay [2] (setting [6]), 100 to 1000 nM.

On to “2-[5-Chloro-2-(4-oxo-1,2,3,4,5,6-hexahydro-benzo[b][1,5]diazocin-8-ylamino)-pyrimidin-4-ylamino]-N-methyl-benzenesulfonamide [Example 1304]”, for which the IC50 is less than 100 nM in assay [1] (setting [3]) and 100 to 1000 nM in assay [2] (setting [4]).

On to “2-[5-Chloro-2-(6-methoxy-2-oxo-2,3,4,5-tetrahydro-1H-benzo[b]azepin-7-ylamino)-pyrimidin-4-ylamino]-N-methyl-benzamide [Example 3]”, for which the results for the IC50 in assay [1] (setting [7]) and in assay [2] (setting [8]) were less than 100 nM and 1000 to 10000 nM, respectively.

With “2-{5-Chloro-2-[1-methoxy-7-(4-methyl-piperazin-1-yl)-6,7,8,9-tetrahydro-5H-benzocyclohepten-2-ylamino]-pyrimidin-4-ylamino}-N,N-dimethyl-benzenesulfonamide [Example 912]”, the IC50 in assay [1] (setting [9]) was less than 100 nM; in assay [2] (setting [10]), more than 10000 nM.

With “3-({2-[5-Chloro-2-(1-ethyl-5,5-dimethyl-2-oxo-2,3,4,5-tetrahydro-1H-1-benzazepin-8-ylamino)-pyrimidin-4-ylamino]-3-fluoro-phenyl}-methyl-amino)-propionitrile [Example 1265]”, the results for the IC50 in assay [1] (setting [3]) and in assay [2] (setting [4]) were 100 to 1000 nM and 1000 to 10000 nM, respectively.

“3-{2-[2-(1-Acetyl-4-oxo-1,2,3,4,5,6-hexahydro-1,5-benzodiazepin-8-ylamino)-5-chloro-pyrimidin-4-ylamino]-phenoxy}-propionitrile [Example 1237]”: the results for the IC50 in assay [1] (setting [3]) and in assay [2] (setting [4]) were less than 100 nM and 100 to 1000 nM, respectively.

Take “3-{5-Chloro-2-[3-(2-methoxy-ethyl)-2,3,4,5-tetrahydro-1H-benzo[d]azepin-7-ylamino]-pyrimidin-4-ylamino}-4-methyl-thiophene-2-carboxylic acid methylamide [Example 1363]”: the IC50 in assay [1] (setting [3]) and in assay [2] (setting [4]) was less than 100 nM each time.

With “5-Chloro-N(4)-(2-fluoro-6-methanesulfonyl-phenyl)-(2-fluoro-6-methanesulfonyl-phenyl)2,3,4,5-tetrahydro-1H-3-benzazepin-7-yl]-pyrimidine-2,4-diamine [Example 1262]”, the IC50 was in the range of 100 to 1000 nM in assay [1] (setting [3]) and 1000 to 10000 nM in assay [2] (setting [4]).

As to “5-Chloro-N*2*,N*4*-bis-(3-ethyl-2,3,4,5-tetrahydro-1H-benzo[d]azepin-7-yl)-pyridine-2,4-diamine [Example 199]”, the IC50 in assay [1] (setting [7]) was less than 100 nM; in assay [2] (setting [8]), 1000 to 10000 nM.

Turning to “5-Chloro-N*2*-[1-methoxy-7-(2,2,2-trifluoro-ethylamino)-6,7,8,9-tetrahydro-5H-benzocyclohepten-2-yl]-N*4*-methyl-N*4*-[2-(propane-2-sulfonyl)-phenyl]-pyrimidine-2,4-diamine [Example 680]”, the IC50 in assay [1] (setting [9]) was less than 100 nM; in assay [2] (setting [10]) it was more than 10000 nM.

For the molecule “5-Chloro-N*2*-[7-(2,2-difluoro-ethylamino)-1-methoxy-6,7,8,9-tetrahydro-5H-benzocyclohepten-2-yl]-N*4*-methyl-N*4*-[2-(propane-2-sulfonyl)-phenyl]-pyrimidine-2,4-diamine [Example 678]”, the IC50 in assay [1] (setting [9]) was less than 100 nM; in assay [2] (setting [10]) it was more than 10000 nM.

Consider “5-Chloro-N*4*-(2-ethyl-4-morpholin-4-yl-phenyl)-N*2*-[7-(2,2,2-trifluoro-ethylamino)-6,7,8,9-tetrahydro-5H-benzocyclohepten-2-yl]-pyrimidine-2,4-diamine [Example 652]”, for which the values for the IC50 in assay [1] (setting [9]) and in assay [2] (setting [10]) were less than 100 nM and more than 10000 nM, respectively.

As to “7-[5-Chloro-4-(2-methoxy-4-morpholin-4-yl-phenylamino)-pyrimidin-2-ylamino]-1-ethyl-5,5-dimethyl-1,3,4,5-tetrahydro-benzo[b]azepin-2-one [Example 393]”, the IC50 was less than 100 nM in assay [1] (setting [7]) and more than 10000 nM in assay [2] (setting [8]).

Consider “8-[5-Chloro-4-(2-pyrazol-1-yl-phenylamino)-pyrimidin-2-ylamino]-3-methyl-1,3,4,5-tetrahydro-benzo[d]azepin-2-one [Example 1819]”, for which the IC50 in assay [1] (setting [5]) and in assay [2] (setting [6]) was 1000 to 10000 nM throughout.

As for “8-{5-Chloro-4-[2-(2-morpholin-4-yl-ethoxy)-phenylamino]-pyrimidin-2-ylamino}-1,3,4,5-tetrahydro-benzo[b]azepin-2-one [Example 1464]”, the IC50 in assay [1] (setting [5]) was 1000 to 10000 nM; in assay [2] (setting [6]) it was more than 10000 nM.

Turning to `CCC(C)N1C2CCC1c1cc(Nc3ncc(Cl)c(N[C@@H]4CCCC[C@H]4NS(C)(=O)=O)n3)ccc1C2` (mixture of isomers) [Example 84, N-{(1R,2R)-2-[2-(12-sec-Butyl-12-aza-tricyclo[7.2.1.0*2,7*]dodeca-2(7),3,5-trien-4-ylamino)-5-chloro-pyrimidin-4-ylamino]-cyclohexyl}-methanesulfonamide], the figures for the IC50 in assay [1] (setting [7]) and in assay [2] (setting [8]) were less than 100 nM and 100 to 1000 nM, respectively.

`CS(=O)(=O)N[C@@H]1CCCC[C@H]1Nc1nc(Nc2ccc3c(c2)C2CCC3CN(C(=O)C(F)(F)F)C2)ncc1Cl` (mixture of isomers) [Example 292, N-((1R,2R)-2-{5-Chloro-2-[10-(2,2,2-trifluoro-acetyl)-10-aza-tricyclo[6.3.2.0*2,7*]trideca-2,4,6-trien-4-ylamino]-pyrimidin-4-ylamino}-cyclohexyl)-methanesulfonamide]: the IC50 in assay [1] (setting [7]) is less than 100 nM; in assay [2] (setting [8]) it was 1000 to 10000 nM.

For the origin of these results see patent US8148391B2 (Cephalon, Inc., priority 2006, dated 2012).
